Measured values reported in patent US11267843B2, “Stereodefining L-monomers” (Roche Innovation Center Copenhagen A/S, priority 2016, dated 2022).

What was measured:
[1] = Stability determination of amidite in solvent after 24 hours (HPLC-MS, UV 254 nm); assay type: physicochemical; settings: for Stability at 24 hours: room temperature, grades 1-3, key not given
Method: (§1) To a 1.5 mL vial was added 0.013 mmol of amidite after which the solid material was dissolved in 0.13 mL of solvent. Hereafter, the vial was capped, vortexed, and finally left at room temperature for 24 hours. Then, the dissolved material was visually examined regarding the solubility (FIG. 1). If the solution appeared cloudy or otherwise non-homogenous the solubility was set to “no”.
Stability Determination Method: To complete the analysis the stability of the amidite was investigated using an Agilent 1100 series HPLC-MS with from the following specifications:
Column: Waters XTerra, MS C-18, 5 μm, 2.1×100 mm
Eluent: A: 0.1% sat. NH4OH (aq) in H2O B: 20% A in CH3CN
The mass and UV peak of the mother compound was identified at 0 hours and at 24 hours. Hereafter, the relative stability compared to other by-products was reported by integrating the UV chromatogram (254 nm) and normalizing the area to the chromatogram recorded at 0 hours (FIG. 2).

[2] = Solubility of amidite in solvent, visual examination; assay type: physicochemical
Method: To investigate the stability and solubility of L-LNA G-DMF and L-LNA G-i-Bu the following experimental procedure was followed:
as §1

Row | SMILES | Stability at 24 hours ([1]; solvent DMF) | Stability at 24 hours ([1]; solvent DMSO) | Stability at 24 hours ([1]; solvent Dioxane) | Stability at 24 hours ([1]; solvent MeCN:Acetone (1:1)) | Stability at 24 hours ([1]; solvent MeCN:DCE (1:1)) | Stability at 24 hours ([1]; solvent MeCN:DCM (1:1)) | Stability at 24 hours ([1]; solvent MeCN:Toluene (1:1)) | Stability at 24 hours ([1]; solvent MeCN) | Stability at 24 hours ([1]; solvent THE) | Stability at 24 hours ([1]; solvent Toluene) | Stability at 24 hours ([1]; solvent DCE) | Stability at 24 hours ([1]; solvent DCM) | Stability at 24 hours ([1]; solvent NMP) | stability in most solvents (side by side comparison) ([1]; most solvents) | solubility in most solvents (side by side comparison) ([2]; most solvents) | improvement in stability ([1]; all solvents investigated) | solubility in all solvents investigated ([2]; all solvents investigated (12 different))
1 | COc1ccc(C(OCC2OC(n3cnc4c(=O)[nH]c(N=CN(C)C)nc43)CC2OP2OC(c3ccccc3)C3CCCN32)(c2ccccc2)c2ccc(OC)cc2)cc1 [D-DNA G-DMF] | 3 | 3 | 2 | 3 | 3 | 3 | 3 | 3 | 3 | 3 | – | – | – | – | – | – | –
2 | COc1ccc(C(OCC2OC(n3cc(C)c(=O)[nH]c3=O)CC2OP2OC(c3ccccc3)C3CCCN32)(c2ccccc2)c2ccc(OC)cc2)cc1 [D-DNA T-DMF] | 3 | 3 | 1 | 2 | 3 | 3 | 3 | 3 | 1 | 3 | 1 | 1 | 3 | – | – | – | –
3 | COc1ccc(C(OCC23COC(C(n4cnc5c(=O)[nH]c(N=CN(C)C)nc54)O2)C3OP2OC(c3ccccc3)C3CCCN32)(c2ccccc2)c2ccc(OC)cc2)cc1 [D-LNA G-DMF] | 1 | 1 | 1 | 2 | 1 | 1 | 3 | 1 | 2 | 3 | 1 | 1 | 3 | stable | soluble | – | –
4 | COc1ccc(C(OCC23COC(C(n4cc(C)c(=O)[nH]c4=O)O2)C3OP2OC(c3ccccc3)C3CCCN32)(c2ccccc2)c2ccc(OC)cc2)cc1 [D-LNA T-DMF] | 2 | 3 | 2 | 2 | 1 | 1 | 3 | 1 | 1 | 3 | 1 | 1 | 3 | – | – | – | –
5 | COc1ccc(C(OCC2OC(n3cnc4c(=O)[nH]c(N=CN(C)C)nc43)CC2OP2OC(c3ccccc3)C3CCCN32)(c2ccccc2)c2ccc(OC)cc2)cc1 [L-DNA G-DMF] | 3 | 3 | 2 | 3 | 3 | 3 | 3 | 2 | 3 | 3 | – | – | – | – | – | – | –
6 | COc1ccc(C(OCC2OC(n3cc(C)c(=O)[nH]c3=O)CC2OP2OC(c3ccccc3)C3CCCN32)(c2ccccc2)c2ccc(OC)cc2)cc1 [L-DNA T-DMF] | 3 | 3 | 1 | 3 | 3 | 3 | 3 | 3 | 2 | 3 | 1 | 1 | 3 | – | – | – | –
7 | COc1ccc(C(OC[C@@]23CO[C@@H]([C@H](n4cnc5c(=O)[nH]c(NC(=O)C(C)C)nc54)O2)[C@@H]3O[P@]2O[C@H](c3ccccc3)[C@@H]3CCCN32)(c2ccccc2)c2ccc(OC)cc2)cc1 [L-LNA G-iBu, N-(9-((1R,3R,4R,7S)-1-((bis(4-methoxyphenyl)(phenyl)methoxy)methyl)-7-(((1R,3R,3aS)-3-phenyltetrahydro-1H,3H-pyrrolo[1,2-c][1,3,2]oxazaphosphol-1-yl)oxy)-2,5-dioxabicyclo[2.2.1]heptan-3-yl)-6-oxo-6,9-dihydro-1H-purin-2-yl)isobutyramide] | 3 | 3 | 1 | 2 | 2 | 2 | 3 | 2 | 2 | 3 | 2 | 2 | – | – | – | significant improvement | soluble
8 | COc1ccc(C(OCC23COC(C(n4cc(C)c(=O)[nH]c4=O)O2)C3OP2OC(c3ccccc3)C3CCCN32)(c2ccccc2)c2ccc(OC)cc2)cc1 [L-LNA T-DMF] | 1 | 2 | 1 | 2 | 1 | 1 | 3 | 1 | 1 | 3 | 1 | 1 | 2 | – | – | – | –
